Assay in all cases: NCI tumour cell line growth inhibition, 48 h
For assay [1], the system named is KM20L2 colon.
Assay [2] concerns LXFL 529 NSCLC.
Assay [3] relates to M19-MEL melanoma.
Assay [4] concerns RXF-631 renal.
In assay [5] the test system is XF 498 CNS.
In assay [6] the test system is HOP-18 NSCLC.
Assay [7] concerns MDA-N.
Assay [8] deals with P388 leukemia.
For assay [9], the system named is P388/ADR leukemia.
Assay [10] relates to SN12K1 renal.
In assay [11] the test system is BT-549 breast.

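Five compound concentrations were applied to cells in 96-well plates for 48 hours; endpoints were derived by simple linear interpolation of the resulting dose-response curve. GI50 marks 50% less growth. TGI marks complete inhibition of growth.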

Here are results for 17 molecules from PubChem BioAssay (NCI).

Consider `CNC(=O)N(CCCCC(NC(C)=O)C(=O)NCc1ccccc1)Cc1ccccc1` (stereo not given), for which the TGI in assay [1], in assay [2], in [3], in assay [4] and in [5] was > 100 µM in each case.
As for `CCCC/C=C1/CCC(CN(C)C)C1=O` (stereo not given), the TGI was determined as 5.56 µM in assay [6]; 5.59 µM in [1]; 1.36 µM in assay [2]; 3.05 µM in [3]; 5.2 µM in assay [7]; 0.366 µM in assay [8]. The results for the TGI in [9], in [4] and in assay [10] were 0.396 µM, 3.27 µM and 1.9 µM, respectively.
With `Cc1nc(Nc2ccc(Cl)c(Cl)c2)sc1C(/C=C/c1ccc2c(c1)OCO2)=N/Nc1ccc([N+](=O)[O-])cc1[N+](=O)[O-]`, the TGI in assay [11], in assay [6], in assay [1], in assay [2], in assay [3] and in assay [7] was > 100 µM in each case. In addition, the TGI in [5] is > 48.8 µM.
Take `COc1cc([C@H]2c3cc4c(cc3[C@H](NCc3ccc(F)cc3)C3COC(=O)[C@H]32)OCO4)cc(OC)c1O` (stereo not given in full): the TGI in [6] is > 100 µM; in assay [1], 15.8 µM; in [2] it was > 100 µM; in assay [3], 23.4 µM; in assay [4], 14.3 µM; in assay [5], 9.67 µM.
On to `COc1ccc(C2C(C(=O)O)=C(COC(C)=O)Oc3cc4c(cc32)OCO4)c(OC)c1` (stereo not given), for which the TGI in assay [6], in [1], in assay [3], in assay [4] and in assay [5] was > 100 µM each time.
With `CCOC(=O)c1cnc2c(ccc3ncccc32)c1OCC`, the TGI in [6], in assay [1], in assay [2], in assay [3] and in assay [4] was > 100 µM in each case.
With `O=S1(=O)CS(=O)(=O)OCCCCCO1`, the TGI in assay [6], in [1], in assay [2], in assay [3] and in [4] was > 100 µM throughout.
Regarding `Cc1cc(N(CCC#N)CCC#N)ccc1/C=C1N=C(/C=C\c2ccccc2)N(c2ccc(C(=O)O)cc2)C\1=O`, the TGI in [6], in assay [1], in assay [2], in [3] and in [4] was > 100 µM in each case.
For the molecule `CN(C)CC(=O)N1CCc2c([nH]c3ccccc23)C1c1cccnc1` (stereo not given), in [11], the GI50 is 12.9 µM. Also, the TGI in [11] is 77.4 µM; in [6] it was > 100 µM; in assay [1], > 100 µM; in assay [2] it was > 100 µM; in assay [3] it was > 100 µM; in [4], > 100 µM. For the same molecule, in assay [5], the TGI was > 100 µM.
As to `Clc1ccc(/C=C/c2csnn2)cc1`, the TGI in assay [6], in [1], in [2], in assay [3] and in assay [5] was > 100 µM throughout.
For `O=C(O)c1cc2ccc(Cl)cc2c(O)c1C1=CCCCC1`, the TGI was > 100 µM in assay [6]; > 100 µM in [1]; > 100 µM in [2]; > 100 µM in [3]; > 100 µM in assay [4]; 51 µM in assay [5].
With `Cc1c(C(=O)/C=C/c2ccc3c(c2)OCO3)[n+](=O)c2ccccc2n1[O-]`, the TGI in assay [6] is > 100 µM; in [1] it was 48.3 µM; in assay [2], 61.9 µM; in assay [3], > 100 µM; in [4], > 100 µM; in assay [5], 92.8 µM.
With `Cc1ccc(/C=C2\CCCC(C(NO)c3ccc(C)cc3)C2=NO)cc1` (stereo not given), the TGI in assay [6] was > 100 µM; in [1] it was 42.5 µM; in assay [2], > 100 µM; in assay [3], > 100 µM; in assay [4], 93.5 µM; in assay [5], > 100 µM.
With `COc1ccc(C2NC(c3ccc(OC)cc3)C(C)C(=O)C2C)cc1` (stereo not given), the TGI in assay [6], in [1], in assay [2], in assay [3] and in assay [4] was > 100 µM each time.
Consider `O=C(Cn1ccnc1[N+](=O)[O-])NCc1ccc(F)cc1`, for which the TGI in assay [6], in assay [1], in assay [2], in [3], in assay [4] and in [5] was > 100 µM each time.
`COc1cc2ccc(CC(=O)O)cc2cc1OC`: the TGI in assay [6], in assay [1], in assay [2], in assay [3] and in [4] was > 100 µM throughout.
For the molecule `O=C(Nc1c(Cl)cc([N+](=O)[O-])cc1Cl)C(=O)C(C(=O)c1ccncc1)C1OC(=O)c2ccccc21` (stereo not given), the TGI in assay [6], in [1], in [2], in [3], in [4] and in assay [5] was > 100 µM throughout.
